Data from PMC2784364, “VX-166: a novel potent small molecule caspase inhibitor as a potential therapy for sepsis” (Critical Care, 2009).
Where two headings read alike, the source gives them in different places.

How the values were obtained:
[1] = tested on: Sprague-Dawley rats; assay: CLP rat, thymus weight; format: in vivo; settings: 25 mg/ml pump, P < 0.01
Protocol: CLP studies were performed in accordance with the National Institutes of Health guidelines for the use of experimental animals and were approved by the Institutional Animal Care and Use Committee of the Feinstein Institute for Medical Research. Adult male Sprague-Dawley rats (weighing 275 to 325 g, Charles River Laboratories, Wilmington, MA, USA) were fasted overnight then anaesthetised with isoflurane. The caecum was exposed via a 2 cm midline incision. It was ligated just distal to the ileocaecal valve, then punctured twice with an 18-gauge needle and gently squeezed to release a small amount of faecal material to ensure patency of the perforation sites before the abdominal incision was closed. Sham-operated rats underwent the same procedure with the exception that the caecum was neither ligated nor punctured. Animals received subcutaneous fluids (30 ml/kg saline) immediately after the procedure. No antibiotics were administered. In the 7 and 10 day survival studies animals were re-anaesthetised 20 hours after CLP, the perforated caecum was removed and the abdominal cavity washed twice with 40 ml of warm, sterilised saline. The abdominal cavity was closed, anaesthetics withdrawn and rats returned to their cages where they were allowed free access to food and water. In the 20 hour endpoint study the caecum was not removed. […]

[2] = biological target: T1, caspase-6 (Homo sapiens, UniProt P55212); assay: Caspase inhibition assay, second-order inactivation rate; format: biochemical; settings: recombinant caspase-6, 37°C, n = 4; read-out: Second order inactivation rate constant K
T1 construct: purchased BD Biosciences (Oxford, UK)
T1 sequence (P55212 24-293): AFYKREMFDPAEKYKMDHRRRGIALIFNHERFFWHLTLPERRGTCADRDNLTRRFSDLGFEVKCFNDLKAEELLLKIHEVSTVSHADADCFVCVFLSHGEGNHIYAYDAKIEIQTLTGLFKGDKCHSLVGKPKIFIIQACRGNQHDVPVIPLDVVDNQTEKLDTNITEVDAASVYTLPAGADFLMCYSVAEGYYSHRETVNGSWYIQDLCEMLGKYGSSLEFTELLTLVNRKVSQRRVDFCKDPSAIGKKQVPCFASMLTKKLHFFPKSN
Protocol: (§1) Active recombinant caspase-1, -3, -4, -7 and -8 were prepared as described previously. Caspase-2 was purchased from Biomol (Exeter, UK), caspase-6 from BD Biosciences (Oxford, UK), caspase-9 from Europa Bioproducts Ltd. (Cambridge, UK) and caspase-10 from Chemicon International Inc. (Harrow, UK). Cathepsin B and granzyme B were purchased from Merck Biosciences Ltd. (Nottingham, UK). Fluorogenic protease substrates were purchased from Bachem Ltd. (St. Helens, UK). All reactions were carried out at 37°C using a Molecular Devices (Wokingham, UK) Gemini plate-reader at 460 nm (excitation wavelength of 390 nm). Caspase inhibition assays were conducted, with minor modifications, as described by Margolin and colleagues. Irreversible kinetics were analysed by calculations of second-order inactivation rate constants (k) using GraphPad (La Jolla, CA, USA) Prism 4.0 software. A larger number for an inactivation rate constant indicates a greater degree of inactivation. To determine the inhibitory effect on cathepsin B, 4.25 nM of the enzyme were added to 250 μM z-RR-AMC in 10 mM 2-morpholino-ethanesulfonic acid pH 6.0, 1 mM DTT, 1 mM EDTA and 0.03% Brij35 in the presence or absence of VX-166 and the reaction monitored continuously over 15 minutes. Granzyme B was assayed, with minor modifications, as described by Thornberry and colleagues. Additional counterscreening against a panel of 83 additional enzymes, ion channels and receptors was carried out at MDS Pharma Services (Bothell, WA, USA).

[3] = biological target: T2, caspase-7 (Homo sapiens, UniProt P55210); assay: as above; format: biochemical; settings: recombinant caspase-7, 37°C, n = 4; read-out: Second order inactivation rate constant K
T2 construct: Active recombinant caspase-1, -3, -4, -7 and -8 were prepared as described previously; made in house
T2 sequence (P55210 24-198 limits assumed): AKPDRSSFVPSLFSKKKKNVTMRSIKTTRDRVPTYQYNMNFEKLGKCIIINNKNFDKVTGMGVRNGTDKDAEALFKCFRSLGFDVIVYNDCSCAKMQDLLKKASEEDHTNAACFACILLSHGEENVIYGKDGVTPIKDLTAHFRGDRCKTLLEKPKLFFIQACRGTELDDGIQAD
T2 sequence (P55210 207-303 limits assumed): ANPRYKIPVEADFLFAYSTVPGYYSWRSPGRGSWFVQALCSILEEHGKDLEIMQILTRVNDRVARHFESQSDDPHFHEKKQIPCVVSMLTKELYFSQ
Protocol: as §1

[4] = biological target: T3, caspase-2 (Homo sapiens, UniProt P42575); assay: as above; format: biochemical
T3 construct: purchased Biomol (Exeter, UK)
T3 sequence (P42575 whole entry): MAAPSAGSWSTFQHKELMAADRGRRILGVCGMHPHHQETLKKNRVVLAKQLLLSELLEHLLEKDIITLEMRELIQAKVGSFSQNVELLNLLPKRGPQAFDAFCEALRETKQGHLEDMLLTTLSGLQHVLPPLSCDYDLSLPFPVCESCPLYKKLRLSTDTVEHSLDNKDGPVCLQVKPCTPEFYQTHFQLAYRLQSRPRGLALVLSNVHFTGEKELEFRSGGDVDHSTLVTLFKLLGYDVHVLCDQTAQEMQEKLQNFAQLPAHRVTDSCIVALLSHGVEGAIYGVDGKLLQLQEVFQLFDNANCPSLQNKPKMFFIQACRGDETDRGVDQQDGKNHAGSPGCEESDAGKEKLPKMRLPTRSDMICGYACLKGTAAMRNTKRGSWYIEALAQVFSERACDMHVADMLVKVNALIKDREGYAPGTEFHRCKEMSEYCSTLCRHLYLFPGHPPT
Protocol: as §1

[5] = biological target: T4, caspase-4 (Homo sapiens, UniProt P49662); assay: as above; format: biochemical; settings: recombinant caspase-4, 37°C, n = 4; read-out: Second order inactivation rate constant K
T4 construct: Active recombinant caspase-1, -3, -4, -7 and -8 were prepared as described previously; made in house
T4 sequence (P49662 81-270 limits assumed): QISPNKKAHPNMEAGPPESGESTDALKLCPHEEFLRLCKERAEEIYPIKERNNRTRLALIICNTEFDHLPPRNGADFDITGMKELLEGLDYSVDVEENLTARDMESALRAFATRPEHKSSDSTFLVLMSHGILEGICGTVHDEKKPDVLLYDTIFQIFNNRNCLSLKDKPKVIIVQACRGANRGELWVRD
T4 sequence (P49662 290-377 limits assumed): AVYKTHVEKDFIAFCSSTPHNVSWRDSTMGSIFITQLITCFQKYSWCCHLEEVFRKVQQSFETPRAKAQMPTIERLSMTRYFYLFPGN
Protocol: as §1

[6] = biological target: T5, caspase-10 (Homo sapiens, UniProt Q92851); assay: as above; format: biochemical; settings: recombinant caspase-10, 37°C, n = 4; read-out: Second order inactivation rate constant K
T5 construct: purchased Chemicon International Inc. (Harrow, UK)
T5 sequence (Q92851 220-521): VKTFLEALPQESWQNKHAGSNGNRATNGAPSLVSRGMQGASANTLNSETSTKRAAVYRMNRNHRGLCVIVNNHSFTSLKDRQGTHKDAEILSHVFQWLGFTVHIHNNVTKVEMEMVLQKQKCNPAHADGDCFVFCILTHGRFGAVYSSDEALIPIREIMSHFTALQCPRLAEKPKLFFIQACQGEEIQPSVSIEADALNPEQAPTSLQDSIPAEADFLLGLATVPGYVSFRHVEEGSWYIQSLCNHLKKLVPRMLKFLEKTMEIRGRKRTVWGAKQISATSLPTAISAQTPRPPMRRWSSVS
Protocol: as §1

[7] = biological target: T6, caspase-9 (Homo sapiens, UniProt P55211); assay: as above; format: biochemical; settings: recombinant caspase-9, 37°C, n = 4; read-out: Second order inactivation rate constant K
T6 construct: purchased Europa Bioproducts Ltd. (Cambridge, UK)
T6 sequence (P55211 whole entry): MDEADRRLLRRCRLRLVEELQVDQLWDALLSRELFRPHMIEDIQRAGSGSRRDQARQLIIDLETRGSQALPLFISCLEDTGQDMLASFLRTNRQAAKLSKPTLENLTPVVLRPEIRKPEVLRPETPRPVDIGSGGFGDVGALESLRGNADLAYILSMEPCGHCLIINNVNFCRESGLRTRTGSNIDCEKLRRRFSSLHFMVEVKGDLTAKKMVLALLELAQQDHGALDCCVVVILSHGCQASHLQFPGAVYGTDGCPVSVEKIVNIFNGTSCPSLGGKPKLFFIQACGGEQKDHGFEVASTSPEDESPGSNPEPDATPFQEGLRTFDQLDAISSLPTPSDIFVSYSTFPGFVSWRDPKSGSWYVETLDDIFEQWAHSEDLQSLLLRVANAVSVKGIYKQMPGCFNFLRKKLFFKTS
Protocol: as §1

[8] = biological target: T7, caspase-1 (Homo sapiens, UniProt P29466); assay: as above; format: biochemical; settings: caspase-1, text; read-out: second order inactivation rate constant (k)
T7 construct: Active recombinant caspase-1, -3, -4, -7 and -8 were prepared as described previously; made in house
T7 sequence (P29466 120-297 limits assumed): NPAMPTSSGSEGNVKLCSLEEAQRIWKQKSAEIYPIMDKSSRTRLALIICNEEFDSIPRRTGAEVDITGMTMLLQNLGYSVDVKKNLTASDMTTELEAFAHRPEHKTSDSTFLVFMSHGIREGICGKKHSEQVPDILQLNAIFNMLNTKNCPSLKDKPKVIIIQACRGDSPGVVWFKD
T7 sequence (P29466 317-404 limits assumed): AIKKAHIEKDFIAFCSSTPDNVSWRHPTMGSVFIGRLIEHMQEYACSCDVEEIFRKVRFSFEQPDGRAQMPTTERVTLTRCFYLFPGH
Protocol: as §1

[9] = biological target: T8, caspase-8 (Homo sapiens, UniProt Q14790); assay: as above; format: biochemical; settings: recombinant caspase-8, 37°C, n = 4; read-out: Second order inactivation rate constant K
T8 construct: Active recombinant caspase-1, -3, -4, -7 and -8 were prepared as described previously; made in house
T8 sequence (Q14790 217-374 limits assumed): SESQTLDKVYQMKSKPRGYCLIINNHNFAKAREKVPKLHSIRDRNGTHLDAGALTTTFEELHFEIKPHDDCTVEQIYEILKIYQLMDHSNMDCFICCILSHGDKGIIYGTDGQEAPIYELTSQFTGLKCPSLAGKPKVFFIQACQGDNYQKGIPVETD
T8 sequence (Q14790 385-479 limits assumed): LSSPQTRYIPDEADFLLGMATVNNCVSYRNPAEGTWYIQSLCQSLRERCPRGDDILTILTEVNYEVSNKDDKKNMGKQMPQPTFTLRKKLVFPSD
Protocol: as §1

[10] = biological target: T9, caspase-3 (Homo sapiens, UniProt P42574); assay: as above; format: biochemical
T9 construct: Active recombinant caspase-1, -3, -4, -7 and -8 were prepared as described previously; made in house
T9 sequence (P42574 29-175 limits assumed): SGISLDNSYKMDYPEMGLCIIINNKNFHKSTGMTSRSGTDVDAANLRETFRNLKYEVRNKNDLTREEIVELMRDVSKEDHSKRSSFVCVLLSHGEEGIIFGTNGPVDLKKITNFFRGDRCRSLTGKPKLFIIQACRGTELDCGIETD
T9 sequence (P42574 176-277 limits assumed): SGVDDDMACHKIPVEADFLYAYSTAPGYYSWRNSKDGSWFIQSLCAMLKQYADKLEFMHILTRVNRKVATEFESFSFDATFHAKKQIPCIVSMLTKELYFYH
Protocol: as §1

[11] = read-out: Second order inactivation rate constant K

CCC(C(=O)NC(CC(=O)O)C(=O)COc1c(F)c(F)cc(F)c1F)n1cccc(NC(=O)OC)c1=O (stereo not drawn) [VX-166]
thymus weight of surviving rats on day 10 vs control [1]: significantly higher weight | kinact/KI [2]: 77000 ± 3000 M⁻¹ s⁻¹ | kinact/KI [3]: 526000 ± 1500 M⁻¹ s⁻¹ | kinact/KI ([4]; caspase-2, text, read-out: second order inactivation rate constant (k)): 6000 M⁻¹ s⁻¹ | kinact/KI [4, 11]: 6190 ± 510 M⁻¹ s⁻¹ | kinact/KI [5]: 480000 ± 32000 M⁻¹ s⁻¹ | kinact/KI [6]: 49000 ± 3800 M⁻¹ s⁻¹ | kinact/KI [7]: 131000 ± 21000 M⁻¹ s⁻¹ | kinact/KI [8]: > 1e+06 M⁻¹ s⁻¹ | kinact/KI [9]: 194000 ± 52000 M⁻¹ s⁻¹ | kinact/KI ([10]; caspase-3, text, read-out: second order inactivation rate constant (k)): > 1e+06 M⁻¹ s⁻¹ | kinact/KI [10, 11]: 1.17e+06 ± 183000 M⁻¹ s⁻¹
